Data as given in patent US20240197596A1, “COMPOUNDS USEFUL AS HAIR DYES” (National University of Singapore, priority 2021, published 2024).
Converted amounts (≈) assume the structure as drawn. “And” between values parts separate entries of the source, which are not always exact repeats. Equal entries are not always repeated. “Also recorded” adds a separate entry of the source.

What was measured:
[1] = Thermodynamic solubility assay (modified shake flask, LC-MS/MS); conditions: Milli-Q water, pH=7, 25° C., 24 h, 3 separate determinations; for solubility at 24 h: 25 °C, pH 7, water, thermodynamic from solid
Summary of the method: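 Excess compound was shaken in water (pH 7) at 300 rpm and 25° C for 24 h. The supernatant was cleared by two centrifugations at 23,000 g for 20 min. Concentration was quantified by LC-MS/MS (ESI+) against a four-point standard curve.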

[2] = Skin permeation study, Franz diffusion cell; assay type: in vitro ADME, porcine; conditions: for Cumulative amount at 8th hour: 1% w/v in deionized water; for Cumulative amount at 8th hour / Cumulative amount comparison of PPD vs derivatives (times less than PPD) / Permeated through skin into receptor / Recovered in donor compartment / Recovered in skin / Recovered in skin outside diffusion area / Recovered in skin swabs / Recovered on parafilm and in washes: 8 h; for Permeated through skin into receptor / Recovered in donor compartment / Recovered in skin / Recovered in skin outside diffusion area / Recovered in skin swabs / Recovered on parafilm and in washes: mass balance; for recovery at 8 h, 1 % w/v: pig, end of 8 h, read-out: Total recovery (mean percentage parent compound recovery)
Experimental: In each Franz cell, a piece of pig ear skin prepared to a thickness of […] was clamped securely. 5 mL of PBS solution was added to the receiver compartment which was purged of air bubbles to ensure maximal contact of the skin piece with the solution. Donor solution was prepared by dissolving N1-N13 in deionized water at 1% w/v, and 900 μL was added to the donor compartment. The study was conducted for 8 h, and aliquots of 200 μL were removed from the receiver solution and topped up with fresh PBS at each timepoint of 15-minutes intervals for the first hour and every hour after that.
For mass balance, at the end of 8 h, skin pieces and swabs of the top and bottom surface of the skin were collected and stored in ACN for N1-N13 extraction. Donor solution and receiver solution were also collected.
The aliquot samples collected were subjected to 2-step extraction using 750 μL of dichloromethane (DCM). […] The solvent was dried using the TurboVap, and then reconstituted with 198 μL of 0.1% formic acid in 50% methanol in water and spiked with 2 μL of ANP (internal standard). The processed aliquot samples and mass balance samples were then sent for analysis using LC-MS/MS. The compounds' steady state fluxes and permeability coefficients were then calculated by fitting the solution to Fick's […] of diffusion at the steady state (linear part) of each experimental cumulative amount curve.

THP-1 cells = assay: MTT assay on THP-1 cells (CV75); assay type: cell-based, human; conditions: THP-1 cells, 24 h
Summary of the method: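 THP-1 cells seeded at 1×10^5 cells/well, grown 24 h at 37 °C/5% CO2, then exposed to a dilution series for 24 h (6 replicates). MTT added for 3 h, formazan dissolved in DMSO, absorbance read at 570 nm; CV75 derived from % viability.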

Hair nuance test = assay: Hair nuance test; parameters: key to L* / a* / b*: CIELAB L*, a*, b* coordinates; key to ΔE (total colour difference to natural hair): ΔE = √((L*−L0)²+(a*−a0)²+(b*−b0)²) vs untreated hair; conditions: for eventual colour of bleached hair, Type A: Type A (Non-oxidative) formulation; for eventual colour of bleached hair, Type B: Type B (Oxidative, H2O2) formulation; for eventual colour of bleached hair, Type C: Type C (Oxidative with coupler resorcinol) formulation
Experimental: 35 g of bleaching powder was mixed with 50 mL of developer then applied onto undyed black hair (wrapped in aluminium foil to enhance the bleaching process) and left on for 45 min. The hair was then rinsed with deionized water and shampoo and left to dry. This process was repeated twice.
Hair dye formulations were prepared from N1-N13 according to methods reported (New Journal of Chemistry. 2019; 43(41):16188-99), and with the compositions stated in Table 11 Bleached hair samples were immersed into the respective formulations for 20 min, then air dried for 20 min. Then they were shampooed twice and treated with conditioner for 5 min.
SkinColorCatch (Delfin Technologies Ltd, Kuopio, Finland) was used to measure CIELAB tristimulus L*, a* and b* values of the dyed hair samples and baseline L0, a0, b0 values from untreated hair. The difference in colour tone (ΔH) and the total colour difference (ΔE) were then derived from the values obtained with the equations below:
ΔH=√{square root over ((a*−a0)^2+(b*−b0)^2)}
ΔE=√{square root over ((L*−L0)^2+(a*−a0)^2+(b*−b0)^2)}

[3] = Type C (Oxidative with coupler resorcinol)

SMILES | solubility at 24 h [1] [mg/mL] | Cumulative amount at 8th hour [2] | Permeated through skin into receptor [2] | Recovered in donor compartment [2] | Recovered in skin [2] | Recovered in skin outside diffusion area [2] | Recovered in skin swabs [2] | Recovered on parafilm and in washes [2] | recovery at 8 h, 1 % w/v [2] [%] | CV75 (concentration affording 75% cell viability), 1 × CV75 (THP-1 cells) [µg/mL] | L* (Hair nuance test; Type A (Non-oxidative)) | a* (Hair nuance test; Type A (Non-oxidative)) | b* (Hair nuance test; Type A (Non-oxidative)) | ΔE (total colour difference to natural hair) (Hair nuance test; Type A (Non-oxidative)) | ΔH (difference in colour tone) (Hair nuance test; Type A (Non-oxidative)) | L* (Hair nuance test; Type B (Oxidative)) | a* (Hair nuance test; Type B (Oxidative)) | b* (Hair nuance test; Type B (Oxidative)) | ΔE (total colour difference to natural hair) (Hair nuance test; Type B (Oxidative)) | ΔH (difference in colour tone) (Hair nuance test; Type B (Oxidative)) | further results
CC(O)COc1cc(N)ccc1N (centres unmarked) [Compound N10, 1-(2,5-diaminophenoxy)propan-2-ol] | 78 to 100 (≈ 428 to 549 mM) | 0.008 μg/cm^2 | <0.001 % of applied compound dose | 95.0 % of applied compound dose | 0.04 % of applied compound dose | 0.003 % of applied compound dose | 0.05 % of applied compound dose | 0.006 % of applied compound dose | 95.1 ± 1.4 | 117 | 25 | 12 | 6 | 20.61 | 4.53 | 11 | 1 | −2 | 3.74 | 1.93 | Solubility [1]: 78 + 2.5 mg/ml; Cumulative amount comparison of PPD vs derivatives (times less than PPD) [2]: 633; eventual colour of bleached hair, Type A (Hair nuance test): Brownish Purple; eventual colour of bleached hair, Type B (Hair nuance test): black colour; L* (Hair nuance test; [3]): 30; a* (Hair nuance test; [3]): 18; b* (Hair nuance test; [3]): 18; ΔE (total colour difference to natural hair) (Hair nuance test; [3]): 32.46; ΔH (difference in colour tone) (Hair nuance test; [3]): 5.69; eventual colour of bleached hair, Type C (Hair nuance test): Brown
C=C(C)Oc1cc(N)ccc1N [Compound N12, 2-(prop-1-en-2-yloxy)benzene-1,4-diamine] | 32 (≈ 195 mM) | 0.0145 μg/cm^2 and 0.0144 μg/cm^2 | <0.001 % of applied compound dose | 96.0 % of applied compound dose | 0.02 % of applied compound dose | 0.0045 % of applied compound dose | 0.05 % of applied compound dose | 0.007 % of applied compound dose | 96.1 ± 1 | 44.7 | 17 | 9 | 4 | 12.4 | 3.52 | 28 | 18 | 12 | 28.39 | 5.32 | eventual colour of bleached hair, Type B (Hair nuance test): brown colour; L* (Hair nuance test; [3]): 11; a* (Hair nuance test; [3]): 0; b* (Hair nuance test; [3]): −3; ΔE (total colour difference to natural hair) (Hair nuance test; [3]): 4.47; ΔH (difference in colour tone) (Hair nuance test; [3]): 2.11; eventual colour of bleached hair, Type C (Hair nuance test): distinct purple colour
Nc1ccc(N)c(OCOCO)c1 [Compound N8, ((2,5-diaminophenoxy)methoxy)methanol] | 78 to 100 (≈ 423 to 543 mM) | 0.00843 μg/cm^2 | <0.001 % of applied compound dose | 95.0 % of applied compound dose | 0.06 % of applied compound dose | 0.0018 % of applied compound dose | 0.02 % of applied compound dose | 0.004 % of applied compound dose | 95.1 ± 1.3 | 141 | 12 | −1 | 6 | 5.91 | 2.43 | 9 | 0 | −1 | 2 | 1.41 | Solubility [1]: 92 + 3.0 mg/ml; Cumulative amount comparison of PPD vs derivatives (times less than PPD) [2]: 640; eventual colour of bleached hair, Type A (Hair nuance test): Black; eventual colour of bleached hair, Type B (Hair nuance test): black colour; L* (Hair nuance test; [3]): 10; a* (Hair nuance test; [3]): 0; b* (Hair nuance test; [3]): 3; ΔE (total colour difference to natural hair) (Hair nuance test; [3]): 2.23; ΔH (difference in colour tone) (Hair nuance test; [3]): 1.49; eventual colour of bleached hair, Type C (Hair nuance test): Brown
Nc1ccc(N)c(OCC2CO2)c1 (centres unmarked) [Compound N4, 2-(oxiran-2-ylmethoxy)benzene-1,4-diamine] | 65 to 72 (≈ 361 to 400 mM) | 0.0104 μg/cm^2 | <0.001 % of applied compound dose | 98.9 % of applied compound dose | 0.02 % of applied compound dose | 0.005 % of applied compound dose | 0.03 % of applied compound dose | 0.008 % of applied compound dose | 99 ± 1.15 | 62.3 | 49 | 5 | 29 | 49.1 | 28.4 | 40 | 6 | 16 | 35.0 | 16.2 | Solubility [1]: 70 + 4.6 mg/ml; eventual colour of bleached hair, Type B (Hair nuance test): Coffee brown; L* (Hair nuance test; [3]): 22; a* (Hair nuance test; [3]): 1; b* (Hair nuance test; [3]): −13; ΔE (total colour difference to natural hair) (Hair nuance test; [3]): 19.1; ΔH (difference in colour tone) (Hair nuance test; [3]): 14.0; eventual colour of bleached hair, Type C (Hair nuance test): vibrant blue colours; also recorded: Admiral blue
COC(COc1cc(N)ccc1N)OC [Compound N1, 2-(2,2-dimethoxyethoxy)benzene-1,4-diamine] | 78 to 100 (≈ 367 to 471 mM) | 0.0073 μg/cm^2 | <0.001 % of applied compound dose | 96.7 % of applied compound dose | 0.05 % of applied compound dose | 0.0015 % of applied compound dose | 0.04 % of applied compound dose | 0.003 % of applied compound dose | 96 ± 1.26 | 143.4 | 23 | 12 | 8 | 19.7 | 13.9 | 9 | −0 | −1 | 2.0 | 2.0 | Solubility [1]: 85 + 4.0 mg/ml; eventual colour of bleached hair, Type B (Hair nuance test): black colour; L* (Hair nuance test; [3]): 21; a* (Hair nuance test; [3]): 18; b* (Hair nuance test; [3]): 8; ΔE (total colour difference to natural hair) (Hair nuance test; [3]): 22.7; ΔH (difference in colour tone) (Hair nuance test; [3]): 19.3; eventual colour of bleached hair, Type C (Hair nuance test): Dark brown
